Data taken from ChEMBL document CHEMBL1201862, “PubChem BioAssay data set” (2004).
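Assay format: 96-well plates, 48-hour exposure. The concentration for 50% growth inhibition is given as GI50.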 The source made the active and inactive calls. Rule as the data show it: active = GI50 up to about 1.1 µM and inactive = higher.

How the values were obtained:
Assay in all cases: DTP human tumour cell line panel, 48 h
A498 = tested on: A498
KM12 = tested on: KM12
UO-31 = tested on: UO-31
HOP-62 = tested on: HOP-62
SR = tested on: SR
SK-MEL-28 = tested on: SK-MEL-28
Hs-578T = tested on: Hs-578T
NCI-H460 = tested on: NCI-H460
NCI-H522 = tested on: NCI-H522
Malme-3M = tested on: Malme-3M
MOLT-4 = tested on: MOLT-4
T47D = tested on: T47D
OVCAR-5 = tested on: OVCAR-5
MDA-MB-435 = tested on: MDA-MB-435
TK-10 = tested on: TK-10
MDA-MB-231 = tested on: MDA-MB-231
A549 = tested on: A549
SNB-19 = tested on: SNB-19
SK-MEL-5 = tested on: SK-MEL-5
K562 = tested on: K562
HCT-15 = tested on: HCT-15
LOX IMVI = tested on: LOX IMVI
NCI-H23 = tested on: NCI-H23
M14 = tested on: M14
CAKI-1 = tested on: CAKI-1
ACHN = tested on: ACHN
IGROV-1 = tested on: IGROV-1
HCC 2998 = tested on: HCC 2998
EKVX = tested on: EKVX
OVCAR-8 = tested on: OVCAR-8
BT-549 = tested on: BT-549
SF-268 = tested on: SF-268
HT-29 = tested on: HT-29
NCI-H226 = tested on: NCI-H226
OVCAR-3 = tested on: OVCAR-3
RXF 393 = tested on: RXF 393
U-251 = tested on: U-251
NCI/ADR-RES = tested on: NCI/ADR-RES
SW-620 = tested on: SW-620
OVCAR-4 = tested on: OVCAR-4
DU-145 = tested on: DU-145
UACC-257 = tested on: UACC-257
PC-3 = tested on: PC-3
SK-MEL-2 = tested on: SK-MEL-2
UACC-62 = tested on: UACC-62
HOP-92 = tested on: HOP-92
SF-295 = tested on: SF-295
MCF7 = tested on: MCF7
SN12C = tested on: SN12C
786-0 = tested on: 786-0
CCRF-CEM = tested on: CCRF-CEM
SNB-75 = tested on: SNB-75
HCT-116 = tested on: HCT-116
HL-60 = tested on: HL-60
MDA-N = tested on: MDA-N
RPMI-8226 = tested on: RPMI-8226
SK-OV-3 = tested on: SK-OV-3
SF-539 = tested on: SF-539
COLO 205 = tested on: COLO 205

## c1ccc2sc(SCN(C3CCCCC3)C3CCCCC3)nc2c1
A498
  GI50: > 100 µM (inactive)
KM12
  GI50: > 100 µM (inactive)
UO-31
  GI50: > 100 µM (inactive)
HOP-62
  GI50: > 100 µM (inactive)
SR
  GI50: > 100 µM (inactive)
SK-MEL-28
  GI50: > 100 µM (inactive)
Hs-578T
  GI50: > 100 µM (inactive)
NCI-H460
  GI50: > 100 µM (inactive)
NCI-H522
  GI50: > 100 µM (inactive)
Malme-3M
  GI50: > 100 µM (inactive)
MOLT-4
  GI50: > 100 µM (inactive)
T47D
  GI50: 15.1 µM (inactive)
OVCAR-5
  GI50: > 100 µM (inactive)
MDA-MB-435
  GI50: > 100 µM (inactive)
TK-10
  GI50: > 100 µM (inactive)
MDA-MB-231
  GI50: > 100 µM (inactive)
A549
  GI50: > 100 µM (inactive)
SNB-19
  GI50: > 100 µM (inactive)
SK-MEL-5
  GI50: > 100 µM (inactive)
K562
  GI50: > 100 µM (inactive)
HCT-15
  GI50: > 100 µM
LOX IMVI
  GI50: > 100 µM (inactive)
NCI-H23
  GI50: > 100 µM (inactive)
M14
  GI50: > 100 µM (inactive)
CAKI-1
  GI50: > 100 µM (inactive)
ACHN
  GI50: > 100 µM (inactive)
IGROV-1
  GI50: > 100 µM (inactive)
HCC 2998
  GI50: > 100 µM (inactive)
EKVX
  GI50: > 100 µM (inactive)
OVCAR-8
  GI50: > 100 µM (inactive)
BT-549
  GI50: > 100 µM (inactive)
SF-268
  GI50: > 100 µM (inactive)
HT-29
  GI50: > 100 µM (inactive)
NCI-H226
  GI50: > 100 µM (inactive)
OVCAR-3
  GI50: > 100 µM (inactive)
RXF 393
  GI50: > 100 µM (inactive)
U-251
  GI50: > 100 µM (inactive)
NCI/ADR-RES
  GI50: > 100 µM (inactive)
SW-620
  GI50: > 100 µM (inactive)
OVCAR-4
  GI50: > 100 µM (inactive)
DU-145
  GI50: > 100 µM (inactive)
UACC-257
  GI50: > 100 µM (inactive)
PC-3
  GI50: > 100 µM (inactive)
SK-MEL-2
  GI50: > 100 µM (inactive)
UACC-62
  GI50: > 100 µM (inactive)
HOP-92
  GI50: > 100 µM (inactive)
SF-295
  GI50: > 100 µM (inactive)

## CCc1ccccc1/N=N/C(=O)NNc1ccccc1CC
MCF7
  GI50: 19.2 µM (inactive)
A498
  GI50: 18.7 µM (inactive)
UO-31
  GI50: 17.3 µM (inactive)
HOP-62
  GI50: 15.8 µM (inactive)
SR
  GI50: 23.2 µM (inactive)
SK-MEL-28
  GI50: 17.7 µM (inactive)
NCI-H460
  GI50: 18 µM (inactive)
NCI-H522
  GI50: 19.7 µM (inactive)
SN12C
  GI50: 18.5 µM (inactive)
Malme-3M
  GI50: 17.6 µM (inactive)
MOLT-4
  GI50: 19.4 µM (inactive)
T47D
  GI50: 6.78 µM (inactive)
OVCAR-5
  GI50: 14.9 µM (inactive)
MDA-MB-435
  GI50: 24.4 µM (inactive)
TK-10
  GI50: 22.1 µM (inactive)
MDA-MB-231
  GI50: 21.3 µM (inactive)
A549
  GI50: 14.9 µM (inactive)
786-0
  GI50: 17.6 µM (inactive)
CCRF-CEM
  GI50: 25.3 µM (inactive)
SNB-19
  GI50: 25.8 µM (inactive)
SK-MEL-5
  GI50: 15 µM (inactive)
K562
  GI50: 26.1 µM (inactive)
HCT-15
  GI50: 18.5 µM
LOX IMVI
  GI50: 18.5 µM (inactive)
NCI-H23
  GI50: 19.9 µM (inactive)
M14
  GI50: 16.9 µM (inactive)
CAKI-1
  GI50: 27.9 µM (inactive)
ACHN
  GI50: 19.8 µM (inactive)
IGROV-1
  GI50: 11 µM (inactive)
HCC 2998
  GI50: 15.7 µM (inactive)
SNB-75
  GI50: 19.4 µM (inactive)
OVCAR-8
  GI50: 15.2 µM (inactive)
BT-549
  GI50: 18.4 µM (inactive)
SF-268
  GI50: 17.3 µM (inactive)
HT-29
  GI50: 24 µM (inactive)
NCI-H226
  GI50: 17.5 µM (inactive)
OVCAR-3
  GI50: 18.7 µM (inactive)
U-251
  GI50: 16.1 µM (inactive)
HCT-116
  GI50: 15.3 µM (inactive)
SW-620
  GI50: 17.1 µM (inactive)
OVCAR-4
  GI50: 24 µM (inactive)
DU-145
  GI50: 14.9 µM (inactive)
UACC-257
  GI50: 18.9 µM (inactive)
HL-60
  GI50: 23.2 µM (inactive)
PC-3
  GI50: 16.4 µM (inactive)
SK-MEL-2
  GI50: 17.5 µM (inactive)
UACC-62
  GI50: 10.3 µM (inactive)
MDA-N
  GI50: 18.3 µM (inactive)
RPMI-8226
  GI50: 22.2 µM (inactive)

## O=NC1c2cccc3cccc(c23)C1N=O (stereo unspecified)
MCF7
  GI50: 7.93 µM (inactive)
SK-OV-3
  GI50: 11 µM (inactive)
A498
  GI50: 17.5 µM (inactive)
KM12
  GI50: 3.89 µM (inactive)
UO-31
  GI50: 2.76 µM (inactive)
HOP-62
  GI50: 5.26 µM (inactive)
Hs-578T
  GI50: 15.9 µM (inactive)
NCI-H460
  GI50: 4.36 µM (inactive)
NCI-H522
  GI50: 1.93 µM (inactive)
MOLT-4
  GI50: 0.612 µM (active)
SF-539
  GI50: 12.8 µM (inactive)
T47D
  GI50: 17 µM (inactive)
OVCAR-5
  GI50: 2.83 µM (inactive)
MDA-MB-435
  GI50: 4.78 µM (inactive)
TK-10
  GI50: 10.2 µM (inactive)
A549
  GI50: 2.43 µM (inactive)
786-0
  GI50: 12.9 µM (inactive)
CCRF-CEM
  GI50: 1.19 µM (inactive)
SNB-19
  GI50: 11.8 µM (inactive)
COLO 205
  GI50: 3.17 µM (inactive)
SK-MEL-5
  GI50: 14 µM (inactive)
K562
  GI50: 2.65 µM (inactive)
HCT-15
  GI50: 1.79 µM
LOX IMVI
  GI50: 1.59 µM (inactive)
NCI-H23
  GI50: 8.87 µM (inactive)
M14
  GI50: 12 µM (inactive)
CAKI-1
  GI50: 2.77 µM (inactive)
ACHN
  GI50: 1.72 µM (inactive)
IGROV-1
  GI50: 1.08 µM (active)
SNB-75
  GI50: 9.79 µM (inactive)
EKVX
  GI50: 2.58 µM (inactive)
OVCAR-8
  GI50: 2.07 µM (inactive)
BT-549
  GI50: 4.21 µM (inactive)
SF-268
  GI50: 10.2 µM (inactive)
HT-29
  GI50: 10.9 µM (inactive)
OVCAR-3
  GI50: 2.69 µM (inactive)
RXF 393
  GI50: 3.51 µM (inactive)
U-251
  GI50: 3.1 µM (inactive)
NCI/ADR-RES
  GI50: 2.39 µM (inactive)
HCT-116
  GI50: 1.34 µM (inactive)
SW-620
  GI50: 2.45 µM (inactive)
OVCAR-4
  GI50: 1.59 µM (inactive)
DU-145
  GI50: 11.1 µM (inactive)
UACC-257
  GI50: 12.9 µM (inactive)
HL-60
  GI50: 2.5 µM (inactive)
PC-3
  GI50: 10.1 µM (inactive)
HOP-92
  GI50: 7.11 µM (inactive)
MDA-N
  GI50: 3.84 µM (inactive)
RPMI-8226
  GI50: 8.17 µM (inactive)
SF-295
  GI50: 9.31 µM (inactive)
